From ChEMBL document CHEMBL1201862, “PubChem BioAssay data set” (2004)
Activity calls are given as the source filed them.

Experiments:
[1] = reduction of Shn3 3'UTR-driven luciferase in osteoblasts – cell-based, Clone20 osteoblasts, firefly luciferase, cherry-picked, dose response (AID 624132); type: functional;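 also: firefly luciferase luminescence from reporter carrying the Shn3 3'UTR in osteoblasts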
[2] = loss of viability in HepG2 cells – cell-based, CellTiter-Glo, cherry-picked, cytotoxicity control for Shn3 inhibitor project, dose response (AID 624134); type: functional
[3] = target: T1, COUP transcription factor 2 (Homo sapiens, UniProt P24468); assay: Luminescence-based cell-based high throughput dose response assay to identify inhibitors of COUP-TFII (NR2F2).; type: functional;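 also: HEK293 cells transiently cotransfected with COUP-TFII expression vector and reporter; luciferase reporter luminescence driven by COUP-TFII from the pX2-168 reporter plasmid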
T1 sequence (P24468 whole entry): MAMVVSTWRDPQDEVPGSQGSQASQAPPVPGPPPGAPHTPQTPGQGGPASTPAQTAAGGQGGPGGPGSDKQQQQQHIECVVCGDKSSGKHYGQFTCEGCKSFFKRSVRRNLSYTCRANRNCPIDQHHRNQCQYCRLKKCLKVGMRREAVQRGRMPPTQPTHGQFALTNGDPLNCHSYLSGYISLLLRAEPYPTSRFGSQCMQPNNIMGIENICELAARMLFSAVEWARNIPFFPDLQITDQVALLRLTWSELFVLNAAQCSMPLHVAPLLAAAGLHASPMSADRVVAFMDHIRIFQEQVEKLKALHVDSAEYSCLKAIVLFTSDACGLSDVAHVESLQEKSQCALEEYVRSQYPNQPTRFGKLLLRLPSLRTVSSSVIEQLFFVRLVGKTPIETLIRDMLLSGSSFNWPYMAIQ

[4] = non-specific 3'UTR reporter inhibition in Clone20-Shn3RL – cell-based, Renilla luciferase, cherry-picked, counter-screen for Shn3 inhibitor project, dose response (AID 624133); type: functional
[5] = target: Steroidogenic factor 1 (Homo sapiens, UniProt Q13285); assay: Counterscreen for inverse agonists of the liver receptor homolog-1 (LRH-1; NR5A2): Luminescence-based cell-based high throughput dose response assay to identify inverse agonists of the Steroidogenic Factor 1 Nuclear Receptor (SF1; NR5A1).; type: functional
[6] = target: Nuclear receptor subfamily 5 group A member 2 (Homo sapiens, UniProt O00482); type: functional, cell-based;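 also: HEK293T cells transfected with LRH-1 and a StAR promoter luciferase reporter; potency for inhibitors that lower LRH-1 driven reporter light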
[7] = nonselective StAR promoter luciferase inhibitors – cell-based, luminescence, luciferase reporter, counter-screen for LRH-1 inverse agonist project, dose response (AID 651969); type: functional
[8] = target: T2, Sentrin-specific protease 1 (Homo sapiens, UniProt Q9P0U3); assay: Dose response confirmation of small molecule inhibitors of the catalytic domain of the SUMO protease, SENP1 in a FRET assay.; type: functional; conditions: read-out: IC50_Mean
T2 sequence (Q9P0U3 whole entry): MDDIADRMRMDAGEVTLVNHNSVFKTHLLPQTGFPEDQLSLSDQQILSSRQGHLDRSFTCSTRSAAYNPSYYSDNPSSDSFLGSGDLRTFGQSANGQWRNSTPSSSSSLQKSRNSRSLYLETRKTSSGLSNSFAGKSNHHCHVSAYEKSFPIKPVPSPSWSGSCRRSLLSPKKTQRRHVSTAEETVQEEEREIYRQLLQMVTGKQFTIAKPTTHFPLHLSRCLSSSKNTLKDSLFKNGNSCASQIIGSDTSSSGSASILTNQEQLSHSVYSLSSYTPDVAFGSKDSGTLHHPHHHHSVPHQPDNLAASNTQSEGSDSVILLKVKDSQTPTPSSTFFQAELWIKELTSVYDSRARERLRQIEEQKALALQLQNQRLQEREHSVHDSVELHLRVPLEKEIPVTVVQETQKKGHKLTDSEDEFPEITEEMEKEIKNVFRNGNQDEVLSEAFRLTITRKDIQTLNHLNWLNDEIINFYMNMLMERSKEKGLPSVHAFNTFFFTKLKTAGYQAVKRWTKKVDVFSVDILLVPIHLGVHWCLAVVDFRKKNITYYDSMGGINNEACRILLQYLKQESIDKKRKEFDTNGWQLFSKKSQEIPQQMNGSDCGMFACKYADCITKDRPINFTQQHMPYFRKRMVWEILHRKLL

[9] = target: T2, Sentrin-specific protease 1; assay: SENP1 catalytic domain blockers, concentration series – biochemical, kinetic FRET, dose response (AID 651697); type: functional; conditions: read-out: IC50_Mean
[10] = target: Paired box protein Pax-8 (Homo sapiens, UniProt Q06710); assay: PAX8 transcriptional activity inhibition in RMG-I – RMG-I cells, luciferase, cherry-pick, dose response (AID 687027); type: functional, cell-based;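 also: luciferase reporter driven by Pax8 target thyroperoxidase promoter measured by SteadyGlo luminescence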
[11] = A2780 cell killing – plate reader, dry powder samples, cytotoxicity control, dose response (AID 743046); type: functional, cell-based
[12] = OVCAR8 cell viability loss – plate reader, dry powder samples, PAX8 project, dose response (AID 743197); type: functional, cell-based; conditions: OVCAR-8
[13] = OVCAR-3 cell viability loss – plate reader, dry powder samples, PAX8 inhibitor project, dose response (AID 743044); type: functional, cell-based
[14] = target: T3, Small ubiquitin-related modifier 1 (Homo sapiens, UniProt P63165); assay: SUMO1 protein interaction blockers, potency – biochemical, fluorescence polarization, uHTS hits, dose response (AID 624382); type: functional; conditions: read-out: IC50_Mean
[15] = target: T3, Small ubiquitin-related modifier 1; assay: SUMO1 protein-protein binding blockers, potency – biochemical, FRET, dose response (AID 624383); type: functional; conditions: read-out: IC50_Mean
[16] = target: T4, Caspase-6 (Homo sapiens, UniProt P55212); assay: inhibition of CASP6 peptide cleavage – biochemical, VEID-R110 fluorescence, cherry-pick, dose response (AID 720632)
T4 sequence (P55212 whole entry): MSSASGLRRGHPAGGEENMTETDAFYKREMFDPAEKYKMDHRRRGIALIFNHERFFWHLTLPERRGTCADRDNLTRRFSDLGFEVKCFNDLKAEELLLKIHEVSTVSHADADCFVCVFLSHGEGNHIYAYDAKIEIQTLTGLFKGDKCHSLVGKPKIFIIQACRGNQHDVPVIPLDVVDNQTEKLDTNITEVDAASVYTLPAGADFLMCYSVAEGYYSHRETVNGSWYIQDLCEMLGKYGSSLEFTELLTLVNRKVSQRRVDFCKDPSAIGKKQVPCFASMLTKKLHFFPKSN

[17] = potency of ADAM10 substrate cleavage blockers – biochemical, QFRET, dose response (AID 743254);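 also: ADAM10 enzyme with the DM2 quenched FRET peptide as substrate; EDANS fluorescence gain as the protease cuts the substrate; inhibitor potency against ADAM10 proteolytic activity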
[18] = target: Disintegrin and metalloproteinase domain-containing protein 17 (Homo sapiens, UniProt P78536); assay: inhibition of ADAM17 substrate cleavage – biochemical, quenched FRET substrate, counter-screen for ADAM10 exosite inhibitor project, dose response (AID 743253)
[19] = target: Albumin (Bos taurus, UniProt P02769); assay: Counterscreen for inhibitors of T-cell receptor (TCR)-CD3 interaction: Fluorescence-based biochemical high throughput dose response assay to identify inhibitors of T-cell receptor (TCR)-CD3 interaction using a TAMRA-labeled BSA probe.; type: functional
[20] = target: T5, Methionyl-tRNA synthetase, putative (Trypanosoma brucei brucei, UniProt Q38C91); type: functional, Trypanosoma brucei brucei strain 927/4 GUTat10.1
T5 sequence (Q38C91 whole entry): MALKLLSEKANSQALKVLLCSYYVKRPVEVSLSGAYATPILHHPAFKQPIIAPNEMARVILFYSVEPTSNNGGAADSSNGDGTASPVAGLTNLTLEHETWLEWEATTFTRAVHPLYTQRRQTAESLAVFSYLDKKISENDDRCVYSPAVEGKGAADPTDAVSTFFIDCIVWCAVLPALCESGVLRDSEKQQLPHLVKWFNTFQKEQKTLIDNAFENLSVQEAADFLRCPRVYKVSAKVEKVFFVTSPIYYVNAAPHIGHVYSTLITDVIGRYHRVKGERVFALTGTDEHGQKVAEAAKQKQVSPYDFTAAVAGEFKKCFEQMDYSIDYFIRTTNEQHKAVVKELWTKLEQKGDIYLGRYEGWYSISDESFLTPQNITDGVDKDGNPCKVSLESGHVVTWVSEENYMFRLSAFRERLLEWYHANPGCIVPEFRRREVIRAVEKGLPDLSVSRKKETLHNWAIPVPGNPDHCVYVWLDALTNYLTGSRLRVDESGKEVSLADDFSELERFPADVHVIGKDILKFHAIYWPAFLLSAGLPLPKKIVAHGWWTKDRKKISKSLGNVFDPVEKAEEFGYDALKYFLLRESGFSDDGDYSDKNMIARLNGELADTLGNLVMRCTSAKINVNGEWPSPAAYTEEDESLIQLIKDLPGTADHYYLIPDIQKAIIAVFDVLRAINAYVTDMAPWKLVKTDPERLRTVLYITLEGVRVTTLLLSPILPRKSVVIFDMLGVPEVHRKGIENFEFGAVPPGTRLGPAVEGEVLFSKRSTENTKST

[21] = Counterscreen for inhibitors of Trypanosoma brucei methionyl tRNA synthetase (MetRS): Luminescence-based cell-based high throughput dose response assay to identify compounds that are cytotoxic to Jurkat human T lymphocyte cells.; type: functional
[22] = target: T5, Methionyl-tRNA synthetase, putative; type: functional, Trypanosoma brucei brucei strain 927/4 GUTat10.1; remark: listed apart in the source

T3 sequence (P63165 whole entry): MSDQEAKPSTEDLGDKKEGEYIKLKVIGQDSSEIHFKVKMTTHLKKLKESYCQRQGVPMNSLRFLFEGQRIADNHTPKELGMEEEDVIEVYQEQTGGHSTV
Sequence of Nuclear receptor subfamily 5 group A member 2 (O00482 whole entry): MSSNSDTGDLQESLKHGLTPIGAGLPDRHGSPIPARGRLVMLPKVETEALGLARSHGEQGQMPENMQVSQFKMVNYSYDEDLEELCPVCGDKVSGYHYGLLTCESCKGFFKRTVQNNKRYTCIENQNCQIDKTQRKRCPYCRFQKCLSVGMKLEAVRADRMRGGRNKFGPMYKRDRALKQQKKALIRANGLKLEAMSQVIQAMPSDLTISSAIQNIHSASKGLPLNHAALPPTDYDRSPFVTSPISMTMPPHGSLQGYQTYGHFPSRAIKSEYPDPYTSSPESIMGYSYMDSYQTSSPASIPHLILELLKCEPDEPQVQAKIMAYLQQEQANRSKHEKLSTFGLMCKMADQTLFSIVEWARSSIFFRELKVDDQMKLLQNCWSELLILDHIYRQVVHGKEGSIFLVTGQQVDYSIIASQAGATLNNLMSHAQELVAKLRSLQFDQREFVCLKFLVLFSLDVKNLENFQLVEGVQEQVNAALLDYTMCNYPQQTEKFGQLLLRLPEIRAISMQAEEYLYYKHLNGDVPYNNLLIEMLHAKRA
Sequence of Steroidogenic factor 1 (Q13285 whole entry): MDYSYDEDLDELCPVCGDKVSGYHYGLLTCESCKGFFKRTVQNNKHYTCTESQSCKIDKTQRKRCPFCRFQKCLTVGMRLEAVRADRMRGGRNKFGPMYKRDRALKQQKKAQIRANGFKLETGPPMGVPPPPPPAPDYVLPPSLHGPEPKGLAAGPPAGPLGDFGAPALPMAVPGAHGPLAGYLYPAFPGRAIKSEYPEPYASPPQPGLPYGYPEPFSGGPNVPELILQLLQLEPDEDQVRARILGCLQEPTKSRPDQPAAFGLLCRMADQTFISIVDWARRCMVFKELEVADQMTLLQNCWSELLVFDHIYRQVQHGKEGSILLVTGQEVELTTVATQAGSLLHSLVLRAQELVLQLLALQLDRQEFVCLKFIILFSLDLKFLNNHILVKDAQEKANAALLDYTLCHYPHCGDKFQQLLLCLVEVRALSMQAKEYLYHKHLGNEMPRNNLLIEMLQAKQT
Sequence of Albumin (P02769 whole entry): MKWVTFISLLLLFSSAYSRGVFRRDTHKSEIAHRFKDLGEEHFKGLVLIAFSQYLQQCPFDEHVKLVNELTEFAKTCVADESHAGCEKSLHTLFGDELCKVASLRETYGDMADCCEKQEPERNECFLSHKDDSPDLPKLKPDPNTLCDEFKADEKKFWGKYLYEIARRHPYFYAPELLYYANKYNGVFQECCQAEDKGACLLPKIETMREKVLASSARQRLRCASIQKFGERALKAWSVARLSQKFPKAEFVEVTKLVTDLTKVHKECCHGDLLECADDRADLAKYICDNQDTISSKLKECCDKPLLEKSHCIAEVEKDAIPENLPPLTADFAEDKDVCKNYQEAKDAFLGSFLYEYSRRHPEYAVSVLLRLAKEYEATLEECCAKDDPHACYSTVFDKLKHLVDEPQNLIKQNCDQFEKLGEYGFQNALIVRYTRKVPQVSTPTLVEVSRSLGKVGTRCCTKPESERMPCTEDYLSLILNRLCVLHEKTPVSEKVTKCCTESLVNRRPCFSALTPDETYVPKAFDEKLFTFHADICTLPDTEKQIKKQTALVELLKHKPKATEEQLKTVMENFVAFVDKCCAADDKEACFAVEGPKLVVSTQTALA
Sequence of Paired box protein Pax-8 (Q06710 whole entry): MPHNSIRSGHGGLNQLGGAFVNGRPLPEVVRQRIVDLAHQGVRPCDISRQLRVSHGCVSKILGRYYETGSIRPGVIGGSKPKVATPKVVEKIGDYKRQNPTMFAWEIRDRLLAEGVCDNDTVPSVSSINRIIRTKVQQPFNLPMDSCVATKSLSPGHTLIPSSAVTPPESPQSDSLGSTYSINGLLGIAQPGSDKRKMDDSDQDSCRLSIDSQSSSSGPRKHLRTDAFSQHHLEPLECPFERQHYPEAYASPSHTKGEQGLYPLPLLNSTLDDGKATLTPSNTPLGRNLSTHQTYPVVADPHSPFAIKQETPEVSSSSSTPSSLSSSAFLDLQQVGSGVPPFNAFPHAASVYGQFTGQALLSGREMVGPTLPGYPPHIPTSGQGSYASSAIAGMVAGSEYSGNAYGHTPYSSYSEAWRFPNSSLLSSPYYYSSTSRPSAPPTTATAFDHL
Sequence of Disintegrin and metalloproteinase domain-containing protein 17 (P78536 whole entry, the tested form may be a part): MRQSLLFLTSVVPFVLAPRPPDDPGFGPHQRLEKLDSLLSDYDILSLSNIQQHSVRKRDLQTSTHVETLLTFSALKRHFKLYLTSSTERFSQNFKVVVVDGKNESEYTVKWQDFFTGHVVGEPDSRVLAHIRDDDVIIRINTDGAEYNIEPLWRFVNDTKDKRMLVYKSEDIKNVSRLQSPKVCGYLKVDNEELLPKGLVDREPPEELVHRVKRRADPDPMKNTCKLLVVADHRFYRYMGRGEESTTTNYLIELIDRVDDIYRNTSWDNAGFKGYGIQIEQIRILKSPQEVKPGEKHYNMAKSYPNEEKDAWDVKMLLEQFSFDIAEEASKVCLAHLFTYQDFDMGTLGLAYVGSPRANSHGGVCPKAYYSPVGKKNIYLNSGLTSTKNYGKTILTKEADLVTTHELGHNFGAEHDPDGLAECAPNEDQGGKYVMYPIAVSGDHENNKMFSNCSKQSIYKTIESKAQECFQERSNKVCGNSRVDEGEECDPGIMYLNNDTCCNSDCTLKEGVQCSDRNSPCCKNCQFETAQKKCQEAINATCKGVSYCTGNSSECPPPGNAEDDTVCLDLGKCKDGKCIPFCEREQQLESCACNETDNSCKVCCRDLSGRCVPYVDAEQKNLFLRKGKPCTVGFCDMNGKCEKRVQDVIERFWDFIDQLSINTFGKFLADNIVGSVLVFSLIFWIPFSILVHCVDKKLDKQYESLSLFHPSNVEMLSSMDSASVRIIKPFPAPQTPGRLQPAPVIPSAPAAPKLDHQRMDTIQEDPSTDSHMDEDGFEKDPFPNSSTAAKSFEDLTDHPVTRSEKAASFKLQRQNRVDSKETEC

## Cc1cc(/C=C2/SC(=S)N(c3cccc(Cl)c3)C2=O)c(C)n1-c1cccnc1
[1]
  AC50: 0.979 µM (active)
[2]
  AC50: 47.8 µM (active)
[3]
  IC50: 5.65 µM (active)
[4]
  AC50: 3.55 µM (active)

## O=C(CSc1nnc(CNC(=O)c2c(F)cccc2F)o1)Nc1ccc2c(c1)OCCO2
[5]
  IC50: 31 µM (inactive)
[6]
  IC50: 35.9 µM (inactive)
[7]
  IC50: 35.9 µM (inactive)

## Cc1cccc(C)c1-n1nnnc1-c1nc2cc3ccccc3cc2nc1O
[8]
  IC50: 1.93 µM (active)
[9]
  IC50: 7.1 µM (active)

## C[C@H](CO)N1C[C@H](C)[C@@H](CN(C)Cc2ccc(C(F)(F)F)cc2)OCCCC[C@H](C)Oc2ccc(NC(=O)Nc3ccc(F)cc3)cc2C1=O
[10]
  AC50: 9.37 µM (active)
[11]
  AC50: 46.6 µM (active)
[12]
  AC50: 39.2 µM (active)
[13]
  AC50: 45.4 µM (active)

## COc1ccc(Cl)cc1Nc1nc(-c2sc(NC(=O)C(C)(C)C)nc2C)cs1
[3]
  IC50: 11.2 µM (inactive)
[14]
  IC50: > 66.6 µM (inactive)
[15]
  IC50: 7.99 µM (active)

## COC(=O)c1ccc(-c2nc(O)c(C)s2)cc1
[8]
  IC50: 8.08 µM (active)
[9]
  IC50: 7.31 µM (active)

## C[C@@H]1CN([C@@H](C)CO)C(=O)c2cc(NC(=O)Nc3ccccc3)ccc2O[C@@H](C)CCCCO[C@H]1CN(C)Cc1ccc(Cl)c(Cl)c1
[11]
  AC50: 3.59 µM (active)

## O=C(c1ccncc1)N1CCCCN2[C@H](C1)[C@H](c1ccc(C#Cc3ccccn3)cc1)[C@@H]2CO
[16]
  AC50: 50.4 µM (active)

## C[C@@H]1CCCCO[C@@H](CN(C)C(=O)Nc2ccc3c(c2)OCO3)[C@@H](C)CN([C@H](C)CO)C(=O)c2cc(NC(=O)Nc3ccc(C(F)(F)F)cc3)ccc2O1
[17]
  IC50: > 69.5 µM (inactive)
[18]
  IC50: > 69.5 µM (inactive)

## O=C(CSc1nc2ccccc2s1)N/N=C/c1cc([N+](=O)[O-])ccc1O
[19]
  IC50: > 94.1 µM (inactive)

## O=C(CN1CCS/C1=N/Cc1ccccc1)c1ccc(Cl)c(Cl)c1
[20]
  IC50: 3.92 µM (active)
[21]
  IC50: 48.2 µM (inactive)
[22]
  IC50: 2.67 µM (active)
